{"source": "patent US20190021998A1", "about": "“TOPICAL NANOEMULSION THERAPY FOR WOUNDS” (THE REGENTS OF THE UNIVERSITY OF MICHIGAN, priority 2014, published 2019)", "origin": "cited, not measured here", "settings": "footnote *", "data": [{"smiles": "CCCCCCCCCCCCCCCCCC[N+](C)(C)CCCCCCCCCCCCCCCCCC", "note": "[DODAC, Dioctadecyl dimethyl ammonium chloride]", "values": [{"measurement": "CMC (mM), critical concentration for unilamellar vesicles", "value": "10* mM"}]}]}
